# Experimental data taken from patent US11814367B2, “Inhibitors of glycogen synthase 1 (GYS1) and methods of use thereof” (Maze Therapeutics, Inc., priority 2021, dated 2023).
# Molecular target: hGYS1 enzyme (recombinant hGYS1/GN1 protein) (Homo sapiens (Human), UniProt P13807)
# Assay: GYS1 coupled enzyme assay (PK/LDH)
# Assay type: biochemical
# Conditions: hGYS1/GN1 50 nM, UDP-Glucose 0.8 mM, G6P 1 mM; geometric mean of at least 2 runs
# hGYS1 enzyme (recombinant hGYS1/GN1 protein), sequence (P13807 whole entry): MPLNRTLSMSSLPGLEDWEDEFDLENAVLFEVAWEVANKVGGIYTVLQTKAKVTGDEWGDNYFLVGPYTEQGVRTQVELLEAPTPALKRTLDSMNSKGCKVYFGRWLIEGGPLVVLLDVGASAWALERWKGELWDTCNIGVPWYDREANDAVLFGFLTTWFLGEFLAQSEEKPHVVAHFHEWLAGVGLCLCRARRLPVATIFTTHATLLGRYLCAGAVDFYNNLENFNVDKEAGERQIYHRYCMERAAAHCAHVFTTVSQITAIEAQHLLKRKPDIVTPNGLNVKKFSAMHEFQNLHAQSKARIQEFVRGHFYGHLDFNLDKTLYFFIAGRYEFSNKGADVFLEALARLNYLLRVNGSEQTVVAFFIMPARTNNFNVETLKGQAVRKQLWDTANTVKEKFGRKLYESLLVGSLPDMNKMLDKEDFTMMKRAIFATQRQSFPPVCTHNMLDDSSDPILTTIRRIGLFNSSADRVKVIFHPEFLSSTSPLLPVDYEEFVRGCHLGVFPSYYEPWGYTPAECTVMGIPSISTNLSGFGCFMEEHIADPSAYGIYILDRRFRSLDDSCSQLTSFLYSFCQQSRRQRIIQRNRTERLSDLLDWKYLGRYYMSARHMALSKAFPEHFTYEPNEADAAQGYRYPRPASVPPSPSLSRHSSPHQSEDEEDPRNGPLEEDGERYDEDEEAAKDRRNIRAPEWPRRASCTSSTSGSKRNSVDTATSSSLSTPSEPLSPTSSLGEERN
# hGYS1 enzyme (recombinant hGYS1/GN1 protein), sequence (P46976 whole entry partner): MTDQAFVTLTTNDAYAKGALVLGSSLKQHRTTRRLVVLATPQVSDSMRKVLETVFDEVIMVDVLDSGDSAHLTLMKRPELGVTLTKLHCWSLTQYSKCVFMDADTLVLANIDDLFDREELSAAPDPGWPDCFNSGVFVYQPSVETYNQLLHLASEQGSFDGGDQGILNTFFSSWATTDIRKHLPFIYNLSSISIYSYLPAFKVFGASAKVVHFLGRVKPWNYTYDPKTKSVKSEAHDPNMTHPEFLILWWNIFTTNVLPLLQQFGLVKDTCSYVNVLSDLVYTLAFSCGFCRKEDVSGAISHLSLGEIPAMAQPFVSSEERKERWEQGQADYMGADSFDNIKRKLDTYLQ
row,SMILES,IC50 [nM]
1,"CC(C)c1ccc(C(NC(=O)[C@@H]2C[C@@H](F)CN2C(=O)Cc2cnn[nH]2)c2ccnc(N)c2)cc1F (single isomer, unassigned) [Compound 618, (2S,4R)-N-[(S) or (R)-(2-aminopyridin-4-yl)[3-fluoro-4-(propan-2-yl)phenyl]methyl]-4-fluoro-1-[2-(1H-1,2,3-triazol-5-yl)acetyl]pyrrolidine-2-carboxamide]",1520
2,"CC(=O)N1C[C@H](F)C[C@H]1C(=O)NC(c1cccc(-c2ccno2)c1)c1ccc(C(C)C)c(F)n1 (single isomer, unassigned) [Compound 698, (2S,4R)-1-acetyl-4-fluoro-N-[(S) or (R)-[6-fluoro-5-(propan-2-yl)pyridin-2-yl][3-(1,2-oxazol-5-yl)phenyl]methyl] pyrrolidine-2-carboxamide]",151
3,"CC(C)c1ccc([C@@H](NC(=O)[C@@H]2C[C@@H](F)CN2C(=O)c2cc3n(n2)CCCNC3=O)c2ccccc2)cc1 [Compound 131, (2S,4R)-4-fluoro-1-{4-oxo-4H,5H,6H,7H,8H-pyrazolo[1,5-a][1,4]diazepine-2-carbonyl}-N-[(S)-phenyl[4-(propan-2-yl)phenyl]methyl]pyrrolidine-2-carboxamide]",563
4,"CC(C)c1ccc([C@@H](NC(=O)[C@@H]2C[C@@H](F)CN2C(=O)c2cccn3c(=O)[nH]nc23)c2ccccc2)cc1 [Compound 74, (2S,4R)-4-fluoro-1-{3-oxo-2H,3H-[1,2,4]triazolo[4,3-a]pyridine-8-carbonyl}-N-[(S)-phenyl[4-(propan-2-yl)phenyl]methyl]pyrrolidine-2-carboxamide]",705
5,"C#CCCCCCC(=O)N1CCC[C@H]1C(=O)N[C@@H](c1ccccc1)c1ccc(C(C)C)cc1 [Compound 701, (2S)-1-(oct-7-ynoyl)-N-[(S)-phenyl[4-(propan-2-yl)phenyl]methyl]pyrrol-idine-2-carboxamide]",446
6,"CC(C)COc1cc(C(=O)N2C[C@H](F)C[C@H]2C(=O)N[C@@H](c2ccccc2)c2ccc(C(C)C)cc2)ccn1 [Compound 705, (2S,4R)-4-fluoro-1-[2-(2-methylpropoxy)pyridine-4-carbonyl]-N-[(S)-phenyl[4-(propan-2-yl)phenyl]methyl]pyrrol-idine-2-carboxamide]",1720
7,"COc1ccc(C2CC2C(=O)N2C[C@H](F)C[C@H]2C(=O)N[C@@H](c2ccccc2)c2ccc(C(C)C)cc2)cc1 (stereo partly drawn) [Compound 703, (2S,4R)-4-fluoro-1-[2-(4-methoxyphenyl)cyclopro-panecarbonyl]-N-[(S)-phenyl[4-(propan-2-yl)phenyl]methyl]pyrrol-idine-2-carboxamide]",2160
8,"CC(Cn1cccn1)C(=O)N1C[C@H](F)C[C@H]1C(=O)N[C@@H](c1ccccc1)c1ccc(C(C)C)cc1 (stereo partly drawn) [Compound 80, (2S,4R)-4-fluoro-1-[2-methyl-3-(1H-pyrazol-1-yl)propanoyl]-N-[(S)-phenyl[4-(propan-2-yl)phenyl]methyl]pyrrolidine-2-carboxamide]",318
9,"CC(C)c1ccc([C@@H](NC(=O)[C@@H]2C[C@@H](F)CN2C(=O)Cn2nncc2N2CCC2)c2ccccc2)nc1 [Compound 715, (2S,4R)-1-{2-[5-(azetidin-1-yl)-1H-1,2,3-triazol-1-yl]acetyl}-4-fluoro-N-[(S)-phenyl[5-(propan-2-yl)pyridin-2-yl]methyl]pyrrolidine-2-carboxamide]",105
10,"CC(=O)N1CCCC(C)(C(=O)N2C[C@H](F)C[C@H]2C(=O)N[C@@H](c2ccccc2)c2ccc(C(C)C)cc2)C1 (stereo partly drawn) [Compound 168, (2S,4R)-1-(1-acetyl-3-methylpiperidine-3-carbonyl)-4-fluoro-N-[(S)-phenyl[4-(propan-2-yl)phenyl]methyl]pyrrolidine-2-carboxamide]",439
11,"Cc1nc(CC(=O)N2C[C@H](F)C[C@H]2C(=O)N[C@@H](c2ccccc2)c2ccc(C3CC3)c(F)n2)oc1C [Compound 761, (2S,4R)-N-[(S)-(5-cyclopropyl-6-fluoropyridin-2-yl)(phenyl)methyl]-1-[2-(4,5-dimethyl-1,3-oxazol-2-yl)acetyl]-4-fluoropyrrolidine-2-carboxamide]",55
12,"CC(=O)N1CC(CC(=O)N2C[C@H](F)C[C@H]2C(=O)N[C@@H](c2ccccc2)c2ccc(C(C)C)cc2)Oc2ccccc21 (stereo partly drawn) [Compound 116, (2S,4R)-1-[2-(4-acetyl-3,5-dihydro-2H-1,4-benzoxazin-2-yl)acetyl]-4-fluoro-N-[(S)-phenyl[4-(propan-2-yl)phenyl]methyl]pyrrolidine-2-carboxamide]",121
13,"CC(C)c1ccc([C@@H](NC(=O)[C@@H]2C[C@@H](F)CN2C(=O)Cc2[nH]nnc2N2CCN(C(=O)OC(C)(C)C)CC2)c2ccccc2)cc1F [Compound 370, tert-butyl 4-(5-{2-[(2S,4R)-4-fluoro-2-{[(S)-[3-fluoro-4-(propan-2-yl)phenyl](phenyl)methyl]carbamoyl}pyrrolidin-1-yl]-2-oxoethyl}-1H-1,2,3-triazol-4-yl)piperazine-1-carboxylate]",569
14,"CC(C)c1ccc([C@@H](NC(=O)[C@@H]2C[C@@H](F)CN2C(=O)c2cc(-n3ccnc3)ccn2)c2ccccc2)cc1 [Compound 707, (2S,4R)-4-fluoro-1-[4-(1H-imidazol-1-yl)pyridine-2-carbonyl]-N-[(S)-phenyl[4-(propan-2-yl)phenyl]methyl]pyrrol-idine-2-carboxamide]",1990
15,"CC(=O)NCC(=O)N1CCC[C@H]1C(=O)NC(c1ccc(C2CC2)c(F)c1)c1cccc2[nH]c(=O)oc12 (single isomer, unassigned) [Compound 643, (2S)-N-[(R) or (S)-(4-cyclopropyl-3-fluorophenyl)(2-oxo-2,3-dihydro-1,3-benzoxazol-7-yl)methyl]-1-(2-acetamidoacetyl) pyrrolidine-2-carboxamide]",2180
16,"CC(=O)N1CCC2(CCCC2C(=O)N2C[C@H](F)C[C@H]2C(=O)N[C@@H](c2ccccc2)c2ccc(C(C)C)cc2)C1 (stereo partly drawn) [Compound 182, (2S,4R)-1-{2-acetyl-2-azaspiro[4.4]nonane-6-carbonyl}-4-fluoro-N-[(S)-phenyl[4-(propan-2-yl)phenyl]methyl]pyrrolidine-2-carboxamide]",748
17,"CC(C)c1ccc([C@@H](NC(=O)[C@@H]2C[C@@H](F)CN2C(=O)C(O)CO)c2ccccc2)cc1 (stereo partly drawn) [Compound 186, (2S,4R)-1-(2,3-dihydroxypropanoyl)-4-fluoro-N-[(S)-phenyl[4-(propan-2-yl)phenyl]methyl]pyrrolidine-2-carboxamide]",97
18,"CC(Cn1ccnc1)C(=O)N1C[C@H](F)C[C@H]1C(=O)N[C@@H](c1ccccc1)c1ccc(C(C)C)cc1 (stereo partly drawn) [Compound 79, (2S,4R)-4-fluoro-1-[3-(1H-imidazol-1-yl)-2-methylpropanoyl]-N-[(S)-phenyl[4-(propan-2-yl)phenyl]methyl]pyrrolidine-2-carboxamide]",313
19,"CC(C)c1ccc(C(NC(=O)[C@@H]2C[C@@H](F)CN2C(=O)Cc2cnn[nH]2)c2ccc(F)cn2)cc1F (single isomer, unassigned) [Compound 616, (2S,4R)-4-fluoro-N-[(R) or (S)-[3-fluoro-4-(propan-2-yl)phenyl](5-fluoropyridin-2-yl)methyl]-1-[2-(1H-1,2,3-triazol-5-yl)acetyl]pyrrolidine-2-carboxamide]",1320
